Measurements: ChEMBL document CHEMBL3232986, “Identification of a novel series of potent HCV NS5B Site I inhibitors” (Bioorg Med Chem Lett, 2014)

Tests used:
[1] = Cytotoxicity against human HuH7 cells after 4 hrs by CellTitre-Blue assay; assay type: cell-based, Huh-7
[2] = Inhibition of HCV genotype 1b wild type NS5B polymerase using biotinylated oligo dT12 primer as substrate after 4 hrs in presence of [3H]UTP; parameters: species or system Hepatitis C virus subtype 1b
[3] = tested on: Hepatitis C virus; assay: Antiviral activity against HCV genotype 1a H77c infected in human HuH7 cells after 3 days by luciferase reporter gene assay; assay type: functional, cell-based, Hepacivirus hominis; settings: Huh-7, 72 h
[4] = Drug uptake in rat liver at 5 mg/kg, iv after 6 hrs; assay type: ADME, organism-based; parameters: dose 5 mg/kg, route intravenous; settings: liver, read-out: Drug uptake
[5] = Plasma concentration in rat at 10 mg/kg, po after 6 hrs; assay type: ADME, organism-based; parameters: dose 10 mg/kg, route oral; settings: plasma
[6] = Drug uptake in rat liver 10 mg/kg, po after 6 hrs; assay type: ADME, organism-based; parameters: dose 10 mg/kg, route oral; settings: liver, read-out: Drug uptake
[7] = Clearance in rat after 6 hrs; assay type: ADME, organism-based; settings: in vivo
[8] = Plasma concentration in rat at 5 mg/kg, iv after 6 hrs; assay type: ADME, organism-based; parameters: dose 5 mg/kg, route intravenous; settings: plasma
[9] = Ratio of EC50 for HCV genotype 1a H77c replicon cells to IC50 for HCV genotype 1b wild type NS5B polymerase
[10] = Permeability of the compound at pH 7.4 by PAMPA; assay type: physicochemical; settings: read-out: permeability
[11] = Permeability of the compound at pH 5.5 by PAMPA; assay type: physicochemical; settings: read-out: permeability

COc1ccc2c(c1)[C@@H]1C[C@]1(C(=O)N1CC34COCC3(CN(CC(F)(F)F)C4)C1)Cn1c-2c(C2CCCCC2)c2ccc(C(=O)NS(=O)(=O)N(C)C)cc21 (some centres undefined)
CC50 at 4 h [1]: 7000 nM | IC50 [2]: 2 nM | EC50 [3]: 19 nM

COc1ccc2c(c1)[C@@H]1C[C@]1(C(=O)N1CC34CN(C)CC3(CN(C)C4)C1)Cn1c-2c(C2CCCCC2)c2ccc(C(=O)NS(=O)(=O)C(C)C)cc21 (some centres undefined)
concentration at 6 h [4]: 66 nM | concentration at 6 h [5]: 4 nM | CC50 at 4 h [1]: 43000 nM | concentration at 6 h [6]: 68 nM | clearance [7]: 25 mL/min/kg | IC50 [2]: 5 nM | EC50 [3]: 1 nM | concentration at 6 h [8]: 14 nM

COc1ccc2c(c1)[C@@H]1C[C@]1(C(=O)N1CC34COCC3(CN(C(C)=O)C4)C1)Cn1c-2c(C2CCCCC2)c2ccc(C(=O)NS(=O)(=O)C(C)C)cc21 (some centres undefined)
Ratio [9]: 14 | CC50 at 4 h [1]: > 100000 nM | IC50 [2]: 3 nM | EC50 [3]: 42 nM

CCOCCN1CC23COCC2(C1)CN(C(=O)[C@]12C[C@H]1c1cc(OC)ccc1-c1c(C4CCCCC4)c4ccc(C(=O)NS(=O)(=O)C(C)C)cc4n1C2)C3 (some centres undefined)
concentration at 6 h [4]: 77 nM | concentration at 6 h [5]: 8 nM | CC50 at 4 h [1]: 19000 nM | concentration at 6 h [6]: 116 nM | clearance [7]: 81 mL/min/kg | EC50 [3]: 5 nM | concentration at 6 h [8]: 32 nM

COc1ccc2c(c1)[C@@H]1C[C@]1(C(=O)N1CC34CCC3(CN(C(=O)N3CCCC3)C4)C1)Cn1c-2c(C2CCCCC2)c2ccc(C(=O)NS(=O)(=O)C(C)C)cc21 (some centres undefined)
CC50 at 4 h [1]: 14000 nM | IC50 [2]: 4 nM | EC50 [3]: 27 nM

COC(=O)N1CC23CCC2(C1)CN(C(=O)[C@]12C[C@H]1c1cc(OC)ccc1-c1c(C4CCCCC4)c4ccc(C(=O)NS(=O)(=O)C(C)C)cc4n1C2)C3 (some centres undefined)
CC50 at 4 h [1]: 3000 nM | IC50 [2]: 25 nM | EC50 [3]: 64 nM

COc1ccc2c(c1)[C@@H]1C[C@]1(C(=O)N1CC34CCC3(CN(C(=O)N3CCOCC3)C4)C1)Cn1c-2c(C2CCCCC2)c2ccc(C(=O)NS(=O)(=O)N(C)C)cc21 (some centres undefined)
Papp [10]: 25.9 ×10⁻⁶ cm/s | CC50 at 4 h [1]: 21000 nM | Papp [11]: 11.3 ×10⁻⁶ cm/s | IC50 [2]: 2 nM | EC50 [3]: 15 nM

COc1ccc2c(c1)[C@@H]1C[C@]1(C(=O)N1CC34CCC3(C1)CN(C1CC1)C4)Cn1c-2c(C2CCCCC2)c2ccc(C(=O)NS(=O)(=O)N(C)C)cc21 (some centres undefined)
CC50 at 4 h [1]: 5000 nM | EC50 [3]: 8 nM

CNC(=O)N1CC23CCC2(C1)CN(C(=O)[C@]12C[C@H]1c1cc(OC)ccc1-c1c(C4CCCCC4)c4ccc(C(=O)NS(=O)(=O)C(C)C)cc4n1C2)C3 (some centres undefined)
CC50 at 4 h [1]: 72000 nM | IC50 [2]: 2 nM | EC50 [3]: 20 nM

COC(=O)N1CC23COCC2(C1)CN(C(=O)[C@]12C[C@H]1c1cc(OC)ccc1-c1c(C4CCCCC4)c4ccc(C(=O)NS(=O)(=O)C(C)C)cc4n1C2)C3 (some centres undefined)
CC50 at 4 h [1]: 5000 nM | IC50 [2]: 23 nM | EC50 [3]: 46 nM

COc1ccc2c(c1)[C@@H]1C[C@]1(C(=O)N1CC34CCC3(CN(C(=O)N3CCCC3)C4)C1)Cn1c-2c(C2CCCCC2)c2ccc(C(=O)NS(=O)(=O)N(C)C)cc21 (some centres undefined)
CC50 at 4 h [1]: 10000 nM | IC50 [2]: 2 nM | EC50 [3]: 18 nM

COc1ccc2c(c1)[C@@H]1C[C@]1(C(=O)N1CC34CCC3(CN(CC(F)(F)F)C4)C1)Cn1c-2c(C2CCCCC2)c2ccc(C(=O)NS(=O)(=O)C(C)C)cc21 (some centres undefined)
CC50 at 4 h [1]: 35000 nM | IC50 [2]: 7 nM | EC50 [3]: 77 nM

COc1ccc2c(c1)[C@@H]1C[C@]1(C(=O)N1CC34CNCC3(COC4)C1)Cn1c-2c(C2CCCCC2)c2ccc(C(=O)NS(=O)(=O)C(C)C)cc21 (some centres undefined)
IC50 [2]: 6 nM | EC50 [3]: 23 nM

COc1ccc2c(c1)[C@@H]1C[C@]1(C(=O)N1[C@@H]3CC[C@H]1CN(C)C3)Cn1c-2c(C2CCCCC2)c2ccc(C(=O)NS(=O)(=O)N(C)C)cc21 [BECLABUVIR]
CC50 at 4 h [1]: 16000 nM | IC50 [2]: 4 nM | EC50 [3]: 2 nM

COc1ccc2c(c1)[C@@H]1C[C@]1(C(=O)N1CC34COCC3(CN(CC(F)(F)F)C4)C1)Cn1c-2c(C2CCCCC2)c2ccc(C(=O)NS(=O)(=O)C(C)C)cc21 (some centres undefined)
CC50 at 4 h [1]: 8000 nM | IC50 [2]: 4 nM | EC50 [3]: 16 nM

COC(=O)N1CC23COCC2(C1)CN(C(=O)[C@]12C[C@H]1c1cc(OC)ccc1-c1c(C4CCCCC4)c4ccc(C(=O)NS(=O)(=O)N(C)C)cc4n1C2)C3 (some centres undefined)
CC50 at 4 h [1]: 7000 nM | EC50 [3]: 462 nM

CCN1CC23COCC2(C1)CN(C(=O)[C@]12C[C@H]1c1cc(OC)ccc1-c1c(C4CCCCC4)c4ccc(C(=O)NS(=O)(=O)C(C)C)cc4n1C2)C3 (some centres undefined)
concentration at 6 h [5]: 6 nM | CC50 at 4 h [1]: 11000 nM | concentration at 6 h [6]: 66 nM | clearance [7]: 49 mL/min/kg | IC50 [2]: 4 nM | EC50 [3]: 4 nM | concentration at 6 h [8]: 8 nM
